In ChEMBL document CHEMBL1201862, “PubChem BioAssay data set” (2004):
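Cells were grown in 96-well plates and exposed to each compound for 48 hours at five concentrations; endpoints were interpolated linearly between bracketing concentrations, or set to the highest concentration if not reached. GI50 = concentration required for 50% inhibition of growth.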 Active and inactive are the calls of the source. Rule as the data show it: active = GI50 up to about 1.1 µM and inactive = higher.

What was measured:
Assay in all cases: DTP human tumour cell line panel, 48 h
SK-MEL-28 = test system: SK-MEL-28
RXF 393 = test system: RXF 393
HCT-15 = test system: HCT-15
RPMI-8226 = test system: RPMI-8226
NCI-H522 = test system: NCI-H522
UACC-62 = test system: UACC-62
OVCAR-4 = test system: OVCAR-4
NCI-H23 = test system: NCI-H23
EKVX = test system: EKVX
MOLT-4 = test system: MOLT-4
HOP-62 = test system: HOP-62
HCC 2998 = test system: HCC 2998
ACHN = test system: ACHN
SN12C = test system: SN12C
HT-29 = test system: HT-29
SF-268 = test system: SF-268
HCT-116 = test system: HCT-116
Malme-3M = test system: Malme-3M
SR = test system: SR
DMS-114 = test system: DMS-114
DLD-1 = test system: DLD-1
M19-MEL = test system: M19-MEL
SK-OV-3 = test system: SK-OV-3
OVCAR-8 = test system: OVCAR-8
SNB-78 = test system: SNB-78
A498 = test system: A498
786-0 = test system: 786-0
KM-20L2 = test system: KM-20L2
U-251 = test system: U-251
OVCAR-3 = test system: OVCAR-3
UACC-257 = test system: UACC-257
SNB-75 = test system: SNB-75
UO-31 = test system: UO-31
SNB-19 = test system: SNB-19
SF-539 = test system: SF-539
XF498 = test system: XF498
NCI-H226 = test system: NCI-H226

With `Cc1cccc(C)c1NC(=O)CCCC(=O)C1CC(=O)CCC1=O` (configuration not stated) the GI50 (SK-MEL-28) was > 100 µM (inactive), the GI50 (RXF 393) was > 100 µM (inactive) and the GI50 (HCT-15) was greater than 100 µM. For the same compound, the GI50 (RPMI-8226) was > 100 µM (inactive), the GI50 (NCI-H522) was > 100 µM (inactive) and the GI50 (UACC-62) was > 100 µM (inactive). The GI50 (OVCAR-4) was > 100 µM (inactive), the GI50 (NCI-H23) was > 100 µM (inactive) and the GI50 (EKVX) was > 100 µM (inactive). For the same compound, the GI50 (MOLT-4) was > 100 µM (inactive), the GI50 (HOP-62) was > 100 µM (inactive) and the GI50 (HCC 2998) was > 100 µM (inactive). The GI50 (ACHN) was > 100 µM (inactive), the GI50 (SN12C) was > 100 µM (inactive) and the GI50 (HT-29) was > 100 µM (inactive). The GI50 (SF-268) was > 100 µM (inactive), the GI50 (HCT-116) was > 100 µM (inactive) and the GI50 (Malme-3M) was > 100 µM (inactive). The GI50 (SR) was > 100 µM (inactive), the GI50 (DMS-114) was > 100 µM (inactive) and the GI50 (DLD-1) was > 100 µM (inactive). The GI50 (M19-MEL) was > 100 µM (inactive), the GI50 (SK-OV-3) was > 100 µM (inactive) and the GI50 (OVCAR-8) was > 100 µM (inactive). The GI50 (SNB-78) was > 100 µM (inactive), the GI50 (A498) was > 100 µM (inactive) and the GI50 (786-0) was > 100 µM (inactive). The GI50 (KM-20L2) was > 100 µM (inactive), the GI50 (U-251) was > 100 µM (inactive) and the GI50 (OVCAR-3) was > 100 µM (inactive). The GI50 (UACC-257) was > 100 µM (inactive), the GI50 (SNB-75) was > 100 µM (inactive) and the GI50 (UO-31) was > 100 µM (inactive). The GI50 (SNB-19) was > 100 µM (inactive), the GI50 (SF-539) was > 100 µM (inactive) and the GI50 (XF498) was > 100 µM (inactive). For the same compound, the GI50 (NCI-H226) was > 100 µM (inactive).
